# From PubChem BioAssay AID1259407 (Chemical Carcinogenesis Research Information System (CCRIS), 2018)
# Calls of active or inactive are those of the source. No rule for the calls is given here.
# System: CCRIS mutagenicity, Ames/micronucleus/aberration tests
# Assay: CCRIS mutagenicity studies
# [1] = Test System: AMES SALMONELLA TYPHIMURIUM, Strain/Indicator: TA98, Metabolic Activation: NONE, Method: PREINCUBATION
# [2] = Test System: AMES SALMONELLA TYPHIMURIUM, Strain/Indicator: TA100, Metabolic Activation: NONE, Method: PREINCUBATION
# [3] = Test System: AMES SALMONELLA TYPHIMURIUM, Strain/Indicator: TA1535, Metabolic Activation: NONE, Method: PREINCUBATION
# [4] = Test System: AMES SALMONELLA TYPHIMURIUM, Strain/Indicator: TA100, Metabolic Activation: NONE, Method: STANDARD PLATE
# [5] = Test System: AMES SALMONELLA TYPHIMURIUM, Strain/Indicator: TA102, Metabolic Activation: NONE, Method: STANDARD PLATE
smiles,measurement,setting,value
CC1(C)SSC[C@@H](C(=O)O)NC1=O,mutagenic call,[1],inactive; negative
same,mutagenic call,[2],inactive; negative
same,mutagenic call,[3],inactive; negative
same,mutagenic call,"Test System: AMES SALMONELLA TYPHIMURIUM, Strain/Indicator: TA1537, Metabolic Activation: NONE, Method: PREINCUBATION",inactive; negative
same,mutagenic call,"Test System: AMES SALMONELLA TYPHIMURIUM, Strain/Indicator: TA1538, Metabolic Activation: NONE, Method: PREINCUBATION",inactive; negative
same,mutagenic call,"Test System: E. COLI, Strain/Indicator: WP2, Metabolic Activation: NONE, Method: PREINCUBATION",inactive; negative
same,mutagenic call,"Test System: E. COLI, Strain/Indicator: WP2 UVRA, Metabolic Activation: NONE, Method: PREINCUBATION",inactive; negative
CC(C)NCC(O)c1ccc2ccccc2c1 (stereo unspecified),mutagenic call,"Test System: AMES SALMONELLA TYPHIMURIUM, Strain/Indicator: TA98, Metabolic Activation: NONE",inactive; negative
same,mutagenic call,"Test System: AMES SALMONELLA TYPHIMURIUM, Strain/Indicator: TA98, Metabolic Activation: RAT, LIVER, S-9, AROCLOR 1254",inactive; negative
same,mutagenic call,"Test System: AMES SALMONELLA TYPHIMURIUM, Strain/Indicator: TA100, Metabolic Activation: NONE",inactive; negative
same,mutagenic call,"Test System: AMES SALMONELLA TYPHIMURIUM, Strain/Indicator: TA100, Metabolic Activation: RAT, LIVER, S-9, AROCLOR 1254",inactive; negative
same,mutagenic call,"Test System: AMES SALMONELLA TYPHIMURIUM, Strain/Indicator: TA1535, Metabolic Activation: NONE",inactive; negative
same,mutagenic call,"Test System: AMES SALMONELLA TYPHIMURIUM, Strain/Indicator: TA1535, Metabolic Activation: RAT, LIVER, S-9, AROCLOR 1254",inactive; negative
same,mutagenic call,"Test System: AMES SALMONELLA TYPHIMURIUM, Strain/Indicator: TA1537, Metabolic Activation: NONE",inactive; negative
same,mutagenic call,"Test System: AMES SALMONELLA TYPHIMURIUM, Strain/Indicator: TA1537, Metabolic Activation: RAT, LIVER, S-9, AROCLOR 1254",inactive; negative
N[C@@H](CSc1ccc([N+](=O)[O-])cc1[N+](=O)[O-])C(=O)O,mutagenic call,"Test System: AMES SALMONELLA TYPHIMURIUM, Strain/Indicator: TA100(NR), Metabolic Activation: NONE, Method: PREINCUBATION",active; positive
same,mutagenic call,"Test System: AMES SALMONELLA TYPHIMURIUM, Strain/Indicator: TA100/GSH-, Metabolic Activation: NONE, Method: PREINCUBATION",active; positive
same,mutagenic call,[2],active; positive
C=CC(O)CCCCC (stereo unspecified),mutagenic call,"Test System: CHINESE HAMSTER V-79, Strain/Indicator: V-79 (HPRT)/6-THIOGUANINE, Metabolic Activation: NONE, Method: STANDARD PLATE",inactive; negative
same,mutagenic call,"Test System: CHINESE HAMSTER V-79, Strain/Indicator: V-79 (HPRT)/6-THIOGUANINE, Metabolic Activation: RAT LIVER S-9, Method: STANDARD PLATE",inactive; negative
CCCCCC[C@@H](O)[C@@H]1C2=C(C[C@H]([C@H](O)[C@@H]3CC=CC(=O)O3)CC3=C(C(=O)OC3=O)[C@@H]1O)C(=O)OC2=O,mutagenic call,[2],inactive; negative
same,mutagenic call,"Test System: AMES SALMONELLA TYPHIMURIUM, Strain/Indicator: TA100, Metabolic Activation: RAT, LIVER, S-9, PHENOBARBITAL, Method: PREINCUBATION",inactive; negative
C=C(C)c1ccccc1,mutagenic call,"End Point: In vitro chromosomal aberrations, Test System: Chinese Hamster ovary (CHO) cells, Metabolic Activation: None",inactive; negative
same,mutagenic call,"End Point: In vitro chromosomal aberrations, Test System: Chinese Hamster ovary (CHO) cells, Metabolic Activation: Rat, Liver, S-9, Aroclor 1254",inactive; negative
same,mutagenic call,"End Point: In vivo micronucleus, Test System: Peripheral blood normochromatic erythrocytes, Species: Mouse, Strain/Sex: B6C3F1/ Female, Route: Inhalation",active; positive
same,mutagenic call,"End Point: In vivo micronucleus, Test System: Peripheral blood normochromatic erythrocytes, Species: Mouse, Strain/Sex: B6C3F1/ Male, Route: Inhalation",active; positive
same,mutagenic call,"Test System: AMES SALMONELLA TYPHIMURIUM, Strain/Indicator: TA97, Metabolic Activation: HAMSTER, LIVER, S-9, AROCLOR 1254 (10 OR 30%), Method: PREINCUBATION",inactive; negative
same,mutagenic call,"Test System: AMES SALMONELLA TYPHIMURIUM, Strain/Indicator: TA97, Metabolic Activation: NONE, Method: PREINCUBATION",inactive; negative
same,mutagenic call,"Test System: AMES SALMONELLA TYPHIMURIUM, Strain/Indicator: TA97, Metabolic Activation: RAT, LIVER, S-9, AROCLOR 1254 (10 OR 30%), Method: PREINCUBATION",inactive; negative
same,mutagenic call,"Test System: AMES SALMONELLA TYPHIMURIUM, Strain/Indicator: TA98, Metabolic Activation: HAMSTER, LIVER, S-9, AROCLOR 1254 (10%), Method: PREINCUBATION",inactive; negative
same,mutagenic call,"Test System: AMES SALMONELLA TYPHIMURIUM, Strain/Indicator: TA98, Metabolic Activation: HAMSTER, LIVER, S-9, AROCLOR 1254 (30%), Method: PREINCUBATION",inactive; negative
same,mutagenic call,[1],inactive; negative
same,mutagenic call,"Test System: AMES SALMONELLA TYPHIMURIUM, Strain/Indicator: TA98, Metabolic Activation: RAT, LIVER, S-9, AROCLOR 1254 (10%), Method: PREINCUBATION",inactive; negative
same,mutagenic call,"Test System: AMES SALMONELLA TYPHIMURIUM, Strain/Indicator: TA98, Metabolic Activation: RAT, LIVER, S-9, AROCLOR 1254 (30%), Method: PREINCUBATION",inactive; negative
same,mutagenic call,"Test System: AMES SALMONELLA TYPHIMURIUM, Strain/Indicator: TA100, Metabolic Activation: HAMSTER, LIVER, S-9, AROCLOR 1254 (10%), Method: PREINCUBATION",inactive; negative
same,mutagenic call,"Test System: AMES SALMONELLA TYPHIMURIUM, Strain/Indicator: TA100, Metabolic Activation: HAMSTER, LIVER, S-9, AROCLOR 1254 (30%), Method: PREINCUBATION",inactive; negative
same,mutagenic call,[2],inactive; negative
same,mutagenic call,"Test System: AMES SALMONELLA TYPHIMURIUM, Strain/Indicator: TA100, Metabolic Activation: RAT, LIVER, S-9, AROCLOR 1254 (10%), Method: PREINCUBATION",inactive; negative
same,mutagenic call,"Test System: AMES SALMONELLA TYPHIMURIUM, Strain/Indicator: TA100, Metabolic Activation: RAT, LIVER, S-9, AROCLOR 1254 (30%), Method: PREINCUBATION",inactive; negative
same,mutagenic call,"Test System: AMES SALMONELLA TYPHIMURIUM, Strain/Indicator: TA1535, Metabolic Activation: HAMSTER, LIVER, S-9, AROCLOR 1254 (10 OR 30%), Method: PREINCUBATION",inactive; negative
same,mutagenic call,[3],inactive; negative
same,mutagenic call,"Test System: AMES SALMONELLA TYPHIMURIUM, Strain/Indicator: TA1535, Metabolic Activation: RAT, LIVER, S-9, AROCLOR 1254 (10 OR 30%), Method: PREINCUBATION",inactive; negative
CC(C(=O)O)c1cccc(C(=O)c2ccccc2)c1 (stereo unspecified),mutagenic call,"Test System: AMES SALMONELLA TYPHIMURIUM, Strain/Indicator: TA97A, Metabolic Activation: NONE, Method: STANDARD PLATE",inactive; negative
same,mutagenic call,"Test System: AMES SALMONELLA TYPHIMURIUM, Strain/Indicator: TA97A, Metabolic Activation: RAT, LIVER, S-9, PHENOBARBITAL, Method: STANDARD PLATE",inactive; negative
same,mutagenic call,[4],inactive; negative
same,mutagenic call,"Test System: AMES SALMONELLA TYPHIMURIUM, Strain/Indicator: TA100, Metabolic Activation: RAT, LIVER, S-9, PHENOBARBITAL, Method: STANDARD PLATE",inactive; negative
same,mutagenic call,[5],inactive; negative
same,mutagenic call,"Test System: AMES SALMONELLA TYPHIMURIUM, Strain/Indicator: TA102, Metabolic Activation: RAT, LIVER, S-9, PHENOBARBITAL, Method: STANDARD PLATE",inactive; negative
O=C(NO)c1ccc(O)c(O)c1,mutagenic call,"Test System: AMES SALMONELLA TYPHIMURIUM, Strain/Indicator: TA97, Metabolic Activation: NONE, Method: STANDARD PLATE",inactive; negative
same,mutagenic call,"Test System: AMES SALMONELLA TYPHIMURIUM, Strain/Indicator: TA97, Metabolic Activation: RAT, LIVER, S-9, DELOR 103, Method: STANDARD PLATE",active; positive
same,mutagenic call,"Test System: AMES SALMONELLA TYPHIMURIUM, Strain/Indicator: TA98, Metabolic Activation: NONE, Method: STANDARD PLATE",inactive; negative
same,mutagenic call,"Test System: AMES SALMONELLA TYPHIMURIUM, Strain/Indicator: TA98, Metabolic Activation: RAT, LIVER, S-9, DELOR 103, Method: STANDARD PLATE",inactive; negative
same,mutagenic call,[4],inactive; negative
same,mutagenic call,"Test System: AMES SALMONELLA TYPHIMURIUM, Strain/Indicator: TA100, Metabolic Activation: RAT, LIVER, S-9, DELOR 103, Method: STANDARD PLATE",inactive; negative
same,mutagenic call,[5],inactive; negative
same,mutagenic call,"Test System: AMES SALMONELLA TYPHIMURIUM, Strain/Indicator: TA102, Metabolic Activation: RAT, LIVER, S-9, DELOR 103, Method: STANDARD PLATE",inactive; negative
